The results in this text go back to the RepoRT retention time repository.

This data set is described as follows: Agilent ZORBAX 300 SB-C18, 150 × 1 mm, 3.5 µm; A: water + 0.01% heptafluorobutyric acid; B: acetonitrile + 0.01% heptafluorobutyric acid; gradient (min/%B) 0/0 100/90. As to conditions: stereoisomer not certain.
With `CCCN1CCCCC1C(=O)Nc1c(C)cccc1C` (stereo unspecified), the LC retention time was 9.88 min. As for `Cc1ccc(C(=O)O)c(=O)[nH]1`, the figure is 6.43 min; as for `CN1CCN(C)CC1`, 6.13 min; as for `Cc1cccc(CN)c1`, 7.91 min. As for `COc1ccc2c(c1O)-c1cccc3c1C(C2)N(C)CC3` (stereo unspecified), the LC retention time stood at 9.69 min. For `O=C(O)c1c2c(nc3ccccc13)CCCC2`, the LC retention time stood at 5.96 min. The result for `COC(=O)Cn1c2c(c3ccccc31)CCCC2` reads 16.2 min; that for `O=C(Cn1cnc2ccccc2c1=O)NN=Cc1cnc2ccccc2n1`, 10.1 min; that for `O=C1NC(Cc2c[nH]c3ccccc23)C(=O)NC1Cc1c[nH]c2ccccc12` (stereo unspecified), 9.58 min. As for `Nc1ccccc1C(=O)N1CCc2ccccc21`, the figure is 12.4 min; as for `CNCCC=C1c2ccccc2CCc2ccccc21`, 11.7 min; as for `COC(=O)c1ccc(NC(=O)CC(=O)Nc2ccc(C(=O)OC)cc2)cc1`, 12.2 min. The result for `O=c1ccc2nc3ccc(O)cc3oc-2c1` reads 9.57 min. Take `CC1CN=C(NC2CCCCC2)S1` (stereo unspecified): the LC retention time worked out at 7.02 min. For the compound `CN1CCn2c1nc(N1CCOCC1)nc2=O`, the LC retention time worked out at 7.25 min. As for `Cc1cc(C=O)c(C)n1-c1ccccc1`, the LC retention time is 13 min. The result for `O=C(OCC(c1ccccc1)c1ccccc1)c1cccnc1` reads 15.9 min; that for `c1ccc(N(c2ccccc2)c2ccccc2)cc1`, 20.2 min.

Turning to `Cc1[nH]c2ccccc2c1CCNC(=O)C1CCCCC1`, the LC retention time was 13.6 min.

For `c1ccc(CNCCc2csc3c2CCCC3)cc1`, the LC retention time amounted to 11.7 min.

`COc1ccc(N2CCCC2=O)cc1`: the LC retention time came out at 9.78 min.

`CC(=O)NCCC1CCCCN1` (stereo unspecified): the LC retention time came to 6.55 min. As to `Nc1ccccc1N`, the LC retention time was determined as 6.66 min. Regarding `NC1CCNCC1`, the LC retention time turned out to be 6.22 min.

As for `NCCCn1ccnc1`, the LC retention time was determined as 6.66 min. With `CC(=O)Nc1cc(NC(C)=O)c(C)c(C(=O)O)c1`, the LC retention time was 6.32 min. As for `Nc1ccc(CCc2ccncc2)cc1`, the LC retention time was 7.22 min.

With `O=C(NCc1ccncc1)c1ccc(-c2ccccc2)cc1`, the LC retention time came to 10.2 min. Consider `Cn1c2c(c(=O)n(C)c1=O)C1c3ccccc3OCC1C(C)(C)O2` (stereo unspecified), for which the LC retention time turned out to be 13.2 min.

For the compound `NC1CCc2ccccc21` (stereo unspecified), the LC retention time is 7.85 min.

`CC1CNCCN1` (stereo unspecified): the LC retention time stood at 6.48 min. The result for `O=C(O)CN=C1NC2(CCCCC2)Cc2ccccc21` reads 9.36 min; that for `Cc1cc2n(n1)c1cc(C)nn1c1cc(C)nn21`, 11.1 min.

For the compound `Cc1cc(=O)n(C)c(=O)n1CCCN1CCCC1`, the LC retention time is 7.09 min. As for `CCCCCCCCN`, the figure is 10.2 min; as for `CN(C)C1C(=O)C(C(=O)NCN2CCCC2)C(=O)C2(O)C(=O)C3C(=O)c4c(O)cccc4C(C)(O)C3CC12` (stereo unspecified), 8.91 min. As for `C[N+]1(CCOCc2ccccc2)CC[N+](C)(CCOCc2ccccc2)CC1` (stereo unspecified), the LC retention time was found to be 9.32 min. Turning to `CCCc1cc2c(cc1N)OCO2`, the LC retention time was found to be 9.27 min. The result for `CCNCc1ccccc1` reads 7.68 min; that for `CCN(CCCCOC(=O)c1ccc(OC)c(OC)c1)C(C)Cc1ccc(OC)cc1` (stereo unspecified), 11.9 min; that for `CCc1cccc2ccn(Cc3ccccc3)c12`, 18.4 min.

`CCc1c(C)[nH]c(C(=O)OCc2ccccc2)c1C`: the LC retention time was found to be 17.1 min. Take `CC(N)=O`: the LC retention time turned out to be 1.61 min. Take `N=C(N)N=Nc1ccc(O)cc1`: the LC retention time stood at 7.38 min. Take `CC(=O)c1ccc2c(c1)n(C)c(=O)n2C`: the LC retention time stood at 9 min. The result for `NC(=O)C(N)c1ccccc1` (stereo unspecified) reads 6.56 min; that for `NC(=S)NCCc1ccccc1`, 9.59 min. The result for `COc1ccc(C2CC(=O)Nc3cc4c(cc32)OCO4)cc1` (stereo unspecified) reads 11.9 min; that for `CCOC(=O)c1ccc2c(c1)C(=O)N(c1cccc3ccccc13)C2=O`, 16.2 min. For the compound `CCN(CC)CCNc1cccc2ccccc12`, the LC retention time was determined as 10.1 min. On to `CCOC(=O)C=CC(=O)NNC(=O)C(c1ccccc1)c1ccccc1`, for which the LC retention time was determined as 12.8 min. On to `O=C(c1n[nH]c(=O)c2ccccc12)N1CCN(C(c2ccccc2)c2ccccc2)CC1`, for which the LC retention time was 11.4 min. The result for `CC(C=Cc1ccccc1)=NNC(=O)C(C)Nc1ccc2ccccc2c1` (stereo unspecified) reads 16.2 min; that for `O=C1CCCCCN1CP(=O)(O)CCc1ccccc1`, 9 min. The result for `CN1C(=O)C(CCC(N)=O)NC1=S` (stereo unspecified) reads 6.53 min; that for `CC1=CC(=O)C2CC1C2(C)C` (stereo unspecified), 11.4 min; that for `CC1CC(C)(C)Nc2ccc(O)cc21` (stereo unspecified), 8.04 min. Take `NC(=O)c1ccccc1NC(=O)c1cc2c(n(-c3ccccc3)c1=O)CCCC2=O`: the LC retention time amounted to 10.5 min.

As to `c1ccc(Oc2nnc(-c3ccccc3)c3ccccc23)cc1`, the LC retention time came out at 15.8 min. As for `CN1CC=C(C=Cc2ccco2)CC1`, the figure is 8.8 min. As for `CCNc1cccc(C)c1`, the figure is 8.38 min; as for `COC(=O)CN1CCCC1=O`, 6.91 min; as for `O=C1Nc2ccccc2C1CCCO` (stereo unspecified), 8.22 min.

`O=C(O)c1cccc(C(=O)O)n1`: the LC retention time is 3.12 min.

For the compound `CC(=O)NNC(=O)c1ccncc1`, the LC retention time was 3.54 min.

Turning to `CN1C2CCC1CC(OC(=O)C(CO)c1ccccc1)C2` (stereo unspecified), the LC retention time is 8.92 min.

Regarding `CC(C)N(C)C`, the LC retention time amounted to 5.87 min. The result for `c1cc(-c2nn[nH]n2)cc(-n2cccn2)c1` reads 9.34 min; that for `COc1ccc(NC(=O)c2ccc(C)cc2)c(OC)c1`, 14.2 min; that for `O=C(NCCOc1ccccc1)Nc1cccc(NC(=O)NCCOc2ccccc2)c1`, 13.6 min.

Regarding `O=CC1C(=O)Nc2ccccc21` (stereo unspecified), the LC retention time stood at 8.65 min. The result for `CCN(CC)CCCN` reads 6.92 min; that for `CC1Cc2ccccc2N1C(=O)CN1CCN(C)CC1` (stereo unspecified), 8.74 min. As for `Cc1cc(-c2noc(C(c3ccccc3)c3ccccc3)n2)c2ccccc2n1`, the figure is 16.9 min. The result for `NC(=S)CCc1ccccn1` reads 6.55 min. For the compound `CN1CCCN(C)C1=O`, the LC retention time turned out to be 6.94 min.

For the compound `c1coc(-c2c3c(nc4ccc5ccccc5c24)CCCC3)c1`, the LC retention time was determined as 13.8 min. The result for `CC(C)c1ccc(OCC(=O)N2CCC(C(N)=O)CC2)cc1` reads 10.8 min. Take `Cc1ccc2[nH]ccc2c1`: the LC retention time worked out at 12.8 min. As for `NC(=O)Cc1ccc(O)cc1`, the figure is 5.97 min; as for `CC(=O)c1cccc(NC(=O)c2ccc(C)cc2)c1`, 13 min.
